16 molecules from ChEMBL document CHEMBL1132028, “Glycolipids from sponges. VII. Simplexides, novel immunosuppressive glycolipids from the Caribbean sponge Plakortis simplex” (1999) can be followed below.

The test system of assay [1] is T-cell. In words: Inhibitory activity against murine immune-system T-cells stimulated with concanavalin-A at 100 ng/ml. In kind it is functional, Mus musculus.
Assay [2] has as its system T-cell. In words: Inhibitory activity against murine immune-system T-cells stimulated with concanavalin-A at 10 ng/ml. In kind it is functional, Mus musculus.
The next assay relates to Plakortis simplex. The experiment in a line: In vitro immunosuppressors activity against P. simplex; Potent. In kind it is functional, organism-based.

Take `CCCCCCCCCCCCCCCCCC(CCCCCCCCCCCCCCC(C)C)O[C@@H]1O[C@@H](CO)[C@H](O[C@H]2O[C@@H](CO)[C@@H](O)[C@H](O)[C@@H]2O)[C@H](O)[C@@H]1O` (stereo partly specified): the figures for the Proliferation in the assay with T-cell [1] and with T-cell [2] were 79% and 43%, respectively.
For `CCCCCCCCCCCCCCCCCCC(CCCCCCCCCCCCCCC(C)C)O[C@@H]1O[C@@H](CO)[C@H](OC2O[C@@H](CO)[C@@H](O)[C@H](O)[C@@H]2O)[C@H](O)[C@@H]1O` (stereo partly specified) the same measures were 79% and 43%.
For `CCCCCCCCCCCCCCCCCC(CCCCCCCCCCCCCCCCC)O[C@@H]1O[C@@H](CO)[C@H](O[C@H]2O[C@@H](CO)[C@@H](O)[C@H](O)[C@@H]2O)[C@H](O)[C@@H]1O`, the figures for the Proliferation in the assay with T-cell [1] and in the assay with T-cell [2] were 79% and 43%, respectively.
As to `CCCCCCCCCCCCCCCCCCC(CCCCCCCCCCCCCCCCCC)O[C@@H]1O[C@@H](CO)[C@H](O[C@H]2O[C@@H](CO)[C@@H](O)[C@H](O)[C@@H]2O)[C@H](O)[C@@H]1O`, the figures for the Proliferation in the assay on T-cell [1] and in the assay with T-cell [2] were 79% and 43%, respectively.
For `CCC(C)CCCCCCCCCCCCCCC(CCCCCCCCCCCCCCC(C)C)O[C@@H]1O[C@@H](CO)[C@H](O[C@H]2O[C@@H](CO)[C@@H](O)[C@H](O)[C@@H]2O)[C@H](O)[C@@H]1O` (stereo partly specified), the Proliferation in the assay with T-cell [1] is listed as 79%; in the assay on T-cell [2], 43%.
For `CCCCCCCCCCCCCCCCCC(CCCCCCCCCCCCCCC(C)CC)O[C@@H]1O[C@@H](CO)[C@H](O[C@H]2O[C@@H](CO)[C@@H](O)[C@H](O)[C@@H]2O)[C@H](O)[C@@H]1O` (stereo partly specified) the same measures were 79% and 43%.
The matching figures for `CC(C)CCCCCCCCCCCCCCC(CCCCCCCCCCCCCCC(C)C)O[C@@H]1O[C@@H](CO)[C@H](O[C@H]2O[C@@H](CO)[C@@H](O)[C@H](O)[C@@H]2O)[C@H](O)[C@@H]1O`: 79% and 43%.
The matching figures for `CCCCCCCCCCCCCCCCCCC(CCCCCCCCCCCCCCCCC)O[C@@H]1O[C@@H](CO)[C@H](OC2O[C@@H](CO)[C@@H](O)[C@H](O)[C@@H]2O)[C@H](O)[C@@H]1O` (stereo partly specified): 79% and 43%.
Take `CCC(C)CCCCCCCCCCCCCCC(CCCCCCCCCCCCCCC(C)CC)O[C@@H]1O[C@@H](CO)[C@H](OC2O[C@@H](CO)[C@@H](O)[C@H](O)[C@@H]2O)[C@H](O)[C@@H]1O` (stereo partly specified): the Proliferation came out at 79% in the assay with T-cell [1] and 43% in the assay on T-cell [2].
For `CCCCCCCCCCCCCCCCC(CCCCCCCCCCCCCCC(C)C)O[C@@H]1O[C@@H](CO)[C@H](O[C@H]2O[C@@H](CO)[C@@H](O)[C@H](O)[C@@H]2O)[C@H](O)[C@@H]1O` (stereo partly specified) the same measures were 79% and 43%.
On to `CCCCCCCCCCCCCCCCC(CCCCCCCCCCCCCCC(C)CC)O[C@@H]1O[C@@H](CO)[C@H](O[C@H]2O[C@@H](CO)[C@@H](O)[C@H](O)[C@@H]2O)[C@H](O)[C@@H]1O` (stereo partly specified), for which the figures for the Proliferation in the assay on T-cell [1] and in the assay with T-cell [2] were 79% and 43%, respectively.
For the molecule `CCCCCCCCCCCCCCCCCC(CCCCCCCCCCCCCCCC)O[C@@H]1O[C@@H](CO)[C@H](O[C@H]2O[C@@H](CO)[C@@H](O)[C@H](O)[C@@H]2O)[C@H](O)[C@@H]1O` (stereo partly specified), the Proliferation is 79% in the assay with T-cell [1] and 43% with T-cell [2].
For `CCCCCCCCCCCCCCCCC(CCCCCCCCCCCCCCCC)O[C@@H]1O[C@@H](CO)[C@H](O[C@H]2O[C@@H](CO)[C@@H](O)[C@H](O)[C@@H]2O)[C@H](O)[C@@H]1O` the same measures were 79% and 43%.
The matching figures for `CCCCCCCCCCCCCCCCCCC(CCCCCCCCCCCCCCCC)O[C@@H]1O[C@@H](CO)[C@H](O[C@H]2O[C@@H](CO)[C@@H](O)[C@H](O)[C@@H]2O)[C@H](O)[C@@H]1O` (stereo partly specified): 79% and 43%.
For `CCCCCCCCCCCCCCCCCCC(CCCCCCCCCCCCCCC(C)CC)O[C@@H]1O[C@@H](CO)[C@H](O[C@H]2O[C@@H](CO)[C@@H](O)[C@H](O)[C@@H]2O)[C@H](O)[C@@H]1O` (stereo partly specified), the Proliferation is reported as 79% in the assay with T-cell [1] and 43% in the assay with T-cell [2].
Turning to `CCCCCCCCCCCC1CC1CCCCC/C=C/CC[C@@H](O)[C@H](CO[C@@H]1O[C@@H](CO)[C@H](O)[C@H](O)[C@@H]1OCC=C(C)C)NC(=O)[C@H](O)CC/C=C\CCCCC1CC1CCCCCCCCCC` (stereo partly specified), the Activity result with Plakortis simplex was “Potent”.
